According to ChEMBL document CHEMBL4229505, “4-Aminophenyl acetamides and propanamides as potent transient receptor potential vanilloid 1 (TRPV1) ligands” (Bioorg Med Chem, 2018):
The source made the active and inactive calls. The calls are words filed in the database; no cut-off is given here.

What was measured:
[1] = molecular target: T1, Transient receptor potential cation channel subfamily V member 1 (Homo sapiens, UniProt Q8NER1); assay: Agonist activity at human TRPV1 expressed in CHO cells assessed as intracellular calcium accumulation by Fluo-4 dye based FLIPR assay; assay type: cell-based
T1 sequence (Q8NER1 whole entry): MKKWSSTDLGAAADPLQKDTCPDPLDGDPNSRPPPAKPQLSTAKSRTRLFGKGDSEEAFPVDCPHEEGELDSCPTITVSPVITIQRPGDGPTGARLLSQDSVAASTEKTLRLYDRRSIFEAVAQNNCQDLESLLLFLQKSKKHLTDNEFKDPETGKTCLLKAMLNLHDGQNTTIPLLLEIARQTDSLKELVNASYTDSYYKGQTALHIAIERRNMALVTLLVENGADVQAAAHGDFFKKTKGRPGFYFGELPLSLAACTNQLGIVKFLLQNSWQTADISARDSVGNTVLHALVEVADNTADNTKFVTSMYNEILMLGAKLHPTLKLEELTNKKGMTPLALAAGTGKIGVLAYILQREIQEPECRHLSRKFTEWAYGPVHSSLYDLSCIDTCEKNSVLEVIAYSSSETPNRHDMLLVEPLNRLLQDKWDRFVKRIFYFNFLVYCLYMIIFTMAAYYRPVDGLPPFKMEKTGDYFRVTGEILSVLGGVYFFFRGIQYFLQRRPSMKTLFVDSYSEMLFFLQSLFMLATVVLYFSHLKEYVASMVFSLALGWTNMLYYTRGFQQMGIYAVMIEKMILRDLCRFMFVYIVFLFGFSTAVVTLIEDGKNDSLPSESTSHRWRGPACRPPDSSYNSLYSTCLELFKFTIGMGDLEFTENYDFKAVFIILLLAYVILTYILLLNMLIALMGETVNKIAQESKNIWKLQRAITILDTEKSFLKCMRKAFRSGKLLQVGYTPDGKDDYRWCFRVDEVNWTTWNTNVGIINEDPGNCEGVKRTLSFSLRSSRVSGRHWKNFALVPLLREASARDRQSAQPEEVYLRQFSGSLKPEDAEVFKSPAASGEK

[2] = molecular target: T1, Transient receptor potential cation channel subfamily V member 1; assay: Antagonist activity at human TRPV1 expressed in CHOK1 cells assessed as reduction in capsaicin-induced intracellular calcium level preincubated for 6 mins followed by capsaicin addition by Fluo-4 dye based FLIPR assay; assay type: cell-based
[3] = molecular target: T1, Transient receptor potential cation channel subfamily V member 1; assay: Partial agonist activity at human TRPV1 expressed in CHO cells assessed as intracellular calcium accumulation by Fluo-4 dye based FLIPR assay; assay type: cell-based
[4] = molecular target: T1, Transient receptor potential cation channel subfamily V member 1; assay: Antagonist activity at human TRPV1 expressed in CHOK1 cells assessed as reduction in NADA-induced intracellular calcium level preincubated with cells followed by NADA addition measured after 5 mins by Fluo-4 dye based FLIPR assay; assay type: cell-based
[5] = molecular target: T1, Transient receptor potential cation channel subfamily V member 1; assay: Antagonist activity at human TRPV1 expressed in CHOK1 cells assessed as reduction in heat-induced intracellular calcium level preincubated with cells for 5 mins followed by incubation under 45 degC by Fluo-4 dye based FLIPR assay; assay type: cell-based
[6] = molecular target: T1, Transient receptor potential cation channel subfamily V member 1; assay: Antagonist activity at human TRPV1 expressed in CHOK1 cells assessed as reduction in low pH-induced receptor activation by measuring decrease in intracellular calcium level preincubated with cells for 5 mins followed by incubation under pH 6 to 6.3 condition by Fluo-4 dye based FLIPR assay; assay type: cell-based
Mus musculus [7] = assay: Anti-hypothermic activity in NMRI mouse assessed as inhibition of capsaicin-induced […] in body temperature at 3 mg/kg, po pretreated for 15 mins followed by capsaicin treatment measured up to 120 mins relative to control; assay type: functional
Mus musculus [8] = assay: Anti-hypothermic activity in NMRI mouse assessed as inhibition of capsaicin-induced […] in body temperature at 10 mg/kg, po pretreated for 15 mins followed by capsaicin treatment measured up to 120 mins relative to control; assay type: functional
Mus musculus [9] = assay: Induction of hyperthermic effect in NMRI mouse assessed as increase in body temperature at 3 mg/kg, po; assay type: organism-based; settings: in vivo

| SMILES | Activity [1] | Ki ([2]; read-out: Ki) | also measured |
| --- | --- | --- | --- |
| CC1CCN(c2nc(C(F)(F)F)ccc2CNC(=O)C(C)c2ccc(Nc3ccccc3)cc2)CC1 (centres undefined) | Active |  |  |
| CC1CCN(c2nc(C(F)(F)F)ccc2CNC(=O)C(C)c2ccc(Nc3ccc(F)cc3)cc2)CC1 (centres undefined) |  |  | Ki [2]: Not Active |
| COc1cc(C(C)C(=O)NCc2ccc(C(F)(F)F)nc2N2CCC(C)CC2)cc(F)c1N (centres undefined) |  |  | Activity [3]: Active |
| COc1cc(C(C)C(=O)NCc2ccc(C(F)(F)F)nc2N2CCC(C)CC2)cc(OC)c1N (centres undefined) |  | 21 nM |  |
| COc1cc(C(C)C(=O)NCc2ccc(C(F)(F)F)nc2N2CCC(C)CC2)ccc1N (centres undefined) | Active |  |  |
| CC1CCN(c2nc(C(F)(F)F)ccc2CNC(=O)C(C)c2cc(O)c(N)c(F)c2)CC1 (centres undefined) |  | 5.3 nM |  |
| CC1CCN(c2nc(C(F)(F)F)ccc2CNC(=O)C(C)c2ccc(N)c(F)c2)CC1 (centres undefined) | Active |  |  |
| CC1CCN(c2nc(C(F)(F)F)ccc2CNC(=O)C(C)c2ccc(Nc3ccccn3)cc2)CC1 (centres undefined) | Active |  |  |
| CC1CCN(c2nc(C(F)(F)F)ccc2CNC(=O)C(C)c2cc(Cl)c(N)c(Cl)c2)CC1 (centres undefined) |  | 2.4 nM |  |
| Cc1cc(C(C)C(=O)NCc2ccc(C(F)(F)F)nc2N2CCC(C)CC2)ccc1N (centres undefined) | Active |  |  |
| COc1ccc(Nc2ccc(C(C)C(=O)NCc3ccc(C(F)(F)F)nc3N3CCC(C)CC3)cc2)cc1 (centres undefined) |  |  | Activity [3]: Active |

Continued, in another order:

| Activity [1] | Ki ([2]; read-out: Ki) | SMILES | also measured |
| --- | --- | --- | --- |
| Active |  | CC1CCN(c2nc(C(F)(F)F)ccc2CNC(=O)C(C)c2ccc(N)c(N)c2)CC1 (centres undefined) |  |
|  | 26.4 nM | CC1CCN(c2nc(C(F)(F)F)ccc2CNC(=O)C(C)c2ccc(NC(=O)C(C)C)c(F)c2)CC1 (centres undefined) |  |
|  | 7.4 nM | CC1CCN(c2nc(C(F)(F)F)ccc2CNC(=O)C(C)c2ccc(NC(=O)c3ccccc3)c(F)c2)CC1 (centres undefined) |  |
|  | 20 nM | CC1CCN(c2nc(C(F)(F)F)ccc2CNC(=O)C(C)c2ccc(NC(=O)C3CC3)c(F)c2)CC1 (centres undefined) |  |
|  | 0.3 nM | CC1CCN(c2nc(C(F)(F)F)ccc2CNC(=O)Cc2cc(Cl)c(N)c(Cl)c2)CC1 | Ki [4]: 0.1 to 0.7 nM; IC50 [5]: 12.8 nM; IC50 [6]: 158 nM; inhibition in vivo at 3 mg/kg (Mus musculus [7]): 57%; inhibition in vivo at 10 mg/kg (Mus musculus [8]): 128%; deltaT (Mus musculus [9]): > 1 °C |
|  | 66.5 nM | CC1CCN(c2nc(C(F)(F)F)ccc2CNC(=O)C(C)c2ccc(Nc3ccc(Cl)cc3)cc2)CC1 (centres undefined) |  |
|  | 51.9 nM | CC1CCN(c2nc(C(F)(F)F)ccc2CNC(=O)C(C)c2ccc(NC(=O)C(C)(C)C)c(F)c2)CC1 (centres undefined) |  |
